Broadly, the Ki is a dissociation constant, usually derived from enzyme kinetics or from competition with a known ligand.

Sequence of recombinant Mcl-1 (residues 172-327) (Q07820 172-327): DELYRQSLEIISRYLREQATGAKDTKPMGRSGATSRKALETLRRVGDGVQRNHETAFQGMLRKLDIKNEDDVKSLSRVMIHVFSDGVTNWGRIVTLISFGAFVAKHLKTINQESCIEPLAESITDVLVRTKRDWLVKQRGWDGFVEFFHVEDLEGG

The first assay has as its target recombinant Mcl-1 (residues 172-327) (Homo sapiens (Human), UniProt Q07820). Briefly: Fluorescence polarization anisotropy competition assay (FITC-Bak or FITC-Bim BH3 peptide) with Mcl-1. The format is binding. The conditions noted are these: Table 2; Ki bins given in nM; FITC-Bak or FITC-Bim peptide competition; Ki converted from IC50; read-out: Ki for Inhibition of Mcl-1. For orientation: In fluorescence polarisation assays a small probe gives low polarisation when free and higher when bound to something large.
For `Cc1cc(OCCCc2c(C(=O)NCc3ccc(C(=O)NCc4ccccc4C(F)(F)F)o3)[nH]c3ccccc23)cc(C)c1Cl` [I-58, 3-(3-(4-chloro-3,5-dimethylphenoxy)propyl)-N-((5-((2-(trifluoromethyl)benzyl)carbamoyl)furan-2-yl)methyl)-1H-indole-2-carboxamide], the Ki was 101 to 299 nM.

For `Cc1cc(OCCCc2c(C(=O)NCc3cc(Br)cc(C(=O)O)c3)[nH]c3c(-c4c(C)nn(C)c4C)c(Cl)ccc23)cc(C)c1Cl` [I-370, 3-bromo-5-((6-chloro-3-(3-(4-chloro-3,5-dimethylphenoxy)propyl)-7-(1,3,5-trimethyl-1H-pyrazol-4-yl)-1H-indole-2-carboxamido)methyl)benzoic acid], the Ki was under 50 nM. As to `Cc1cc(OCCCc2c(C(=O)NCCC(=O)NS(=O)(=O)c3ccc([N+](=O)[O-])cc3)[nH]c3ccccc23)cc(C)c1Cl` [I-22, 3-(3-(4-chloro-3,5-dimethylphenoxy)propyl)-N-(3-((4-nitrophenyl)sulfonamido)-3-oxopropyl)-1H-indole-2-carboxamide], the Ki is 101 to 299 nM. On the same count and under the same terms, with `Cc1cc(OCCCc2c3n(c4c(-c5c(C)nn(C)c5C)c(Cl)ccc24)CCCN(c2ccc(CC(=O)O)cc2)C3=O)cc(C)c1Cl` [I-237, 2-(4-(8-chloro-11-(3-(4-chloro-3,5-dimethylphenoxy)propyl)-1-oxo-7-(1,3,5-trimethyl-1H-pyrazol-4-yl)-4,5-dihydro-H-[1,4]diazepino[1,2-a]indol-2(3H)-yl)phenyl)acetic acid] the figure was under 50 nM; with `Cc1cc(OCCCc2c(C(=O)NCC(=O)NCC(=O)O)[nH]c3c(-c4c(C)nn(C)c4C)cccc23)cc(C)c1Cl` [I-290, (3-(3-(4-chloro-3,5-dimethylphenoxy)propyl)-7-(1,3,5-trimethyl-1H-pyrazol-4-yl)-1H-indole-2-carbonyl)glycylglycine], under 50 nM. On the same count and under the same terms, under `Cc1cc(OCCCc2c3n(c4c(-c5c(C)nn(C)c5C)c(Cl)ccc24)CCCN(Cc2cc(C(=O)O)cc(Cl)n2)C3=O)cc(C)c1Cl` [I-298, 2-chloro-6-((8-chloro-1-(3-(4-chloro-3,5-dimethylphenoxy)propyl)-1-oxo-7-(1,3,5-trimethyl-1H-pyrazol-4-yl)-4,5-dihydro-1H-[1,4]diazepino[1,2-a]indol-2(3H)-yl)methyl)isonicotinic acid] stands under 50 nM.

As to `Cc1cc(OCCCc2c3n(c4c(-c5c(C)nn(C)c5C)c(Cl)ccc24)C[C@@H](C)N(c2cc(C(=O)O)cc4c2ccn4C)C3=O)cc(C)c1Cl` [I-159, (R)-4-(7-chloro-10-(3-(4-chloro-3,5-dimethylphenoxy)propyl)-3-methyl-1-oxo-6-(1,3,5-trimethyl-1H-pyrazol-4-yl)-3,4-dihydropyrazino[1,2-a]indol-2(1H)-yl)-1-methyl-1H-indole-6-carboxylic acid], the Ki is under 50 nM. With `Cc1cc(OCCCc2c3n(c4c(-c5c(C)nn(C)c5C)c(Cl)ccc24)CCCN(c2cc(C(=O)O)c4c(Cl)cn(C)c4c2)C3=O)cc(C)c1Cl` [I-257, 3-chloro-6-(8-chloro-11-(3-(4-chloro-3,5-dimethylphenoxy)propyl)-1-oxo-7-(1,3,5-trimethyl-1H-pyrazol-4-yl)-4,5-dihydro-1H-[1,4]diazepino[1,2-a]indol-2(3H)-yl)-1-methyl-1H-indole-4-carboxylic acid], the Ki was under 50 nM. Regarding `Cc1cc(OCCCc2c3n(c4c(-c5c(C)nn(C)c5C)c(Cl)ccc24)C(C)CN(Cc2ccc(C(=O)O)o2)C3=O)cc(C)c1Cl` (stereo not drawn) [I-128, 5-((7-chloro-10-(3-(4-chloro-3,5-dimethylphenoxy)propyl)-4-methyl-1-oxo-6-(1,3,5-trimethyl-1H-pyrazol-4-yl)-3,4-dihydropyrazino[1,2-a]indol-2(1H)-yl)methyl)furan-2-carboxylic acid], the Ki was under 50 nM. Still for that read-out and setting: with `Cc1cc(OCCCc2c3n(c4c(-c5c(C)nn(C)c5C)c(Cl)ccc24)C(C)[C@@H](C)N(Cc2ccc(C(=O)O)o2)C3=O)cc(C)c1Cl` (stereo partly drawn) [I-147, 5-(((3R)-7-chloro-10-(3-(4-chloro-3,5-dimethylphenoxy)propyl)-3,4-dimethyl-1-oxo-6-(1,3,5-trimethyl-1H-pyrazol-4-yl)-3,4-dihydropyrazino[1,2-a]indol-2(1H)-yl)methyl)furan-2-carboxylic acid] the figure was under 50 nM.

For the compound `Cc1cc(OCCCc2c(C(=O)NCc3cccc(C(=O)O)c3)[nH]c3c(-c4c(CN5CCCC5)nn(C)c4C)cccc23)cc(C)c1Cl` [I-34, 3-((3-(3-(4-chloro-3,5-dimethylphenoxy)propyl)-7-(1,5-dimethyl-3-(pyrrolidin-1-ylmethyl)-1H-pyrazol-4-yl)-1H-indole-2-carboxamido)methyl)benzoic acid], the Ki was under 50 nM.

For the compound `Cc1cc(OCCCc2c3n(c4c(-c5c(C)nn(C)c5C)c(Cl)ccc24)CCCN(Cc2cc(CCNC(=O)CC(C)C)cc(C(=O)O)c2)C3=O)cc(C)c1Cl` [I-307, 3-((8-chloro-11-(3-(4-chloro-3,5-dimethylphenoxy)propyl)-1-oxo-7-(1,3,5-trimethyl-1H-pyrazol-4-yl)-4,5-dihydro-1H-[1,4]diazepino[1,2-a]indol-2(3H)-yl)methyl)-5-(2-(3-methylbutanamido)ethyl)benzoic acid], the Ki was under 50 nM.

As for `Cc1cc(OCCCc2c3n(c4c(-c5c(C)nn(C)c5C)c(Cl)ccc24)CCCN(c2ccc(-c4nn[nH]n4)cc2)C3=O)cc(C)c1Cl` [I-357, 2-(4-(2H-tetrazol-5-yl)phenyl)-8-chloro-1-(3-(4-chloro-3,5-dimethylphenoxy)propyl)-7-(1,3,5-trimethyl-1H-pyrazol-4-yl)-2,3,4,5-tetrahydro-1H-[1,4]diazepino[1,2-a]indol-1-one], the Ki is under 50 nM. On the same count and under the same terms, under `Cc1cc(OCCCc2c(C(=O)NC3CCN(C(=O)C(=O)O)CC3)[nH]c3c(-c4c(C)nn(C)c4C)cccc23)cc(C)c1Cl` [I-319, 2-(4-(3-(3-(4-chloro-3,5-dimethylphenoxy)propyl)-7-(1,3,5-trimethyl-1H-pyrazol-4-yl)-1H-indole-2-carboxamido)piperidin-1-yl)-2-oxoacetic acid] stands under 50 nM. Same read-out and setting: under `Cc1cc(OCCCc2c3n(c4c(-c5c(C)nn(C)c5C)c(Cl)ccc24)CCN(Cc2ccc(C(=O)O)cn2)C3=O)cc(C)c1Cl` [I-142, 6-((7-chloro-10-(3-(4-chloro-3,5-dimethylphenoxy)propyl)-1-oxo-6-(1,3,5-trimethyl-1H-pyrazol-4-yl)-3,4-dihydropyrazino[1,2-a]indol-2(1H)-yl)methyl)nicotinic acid] stands under 50 nM; under `Cc1cc(OCCCc2c3n(c4c(-c5c(C)nn(C)c5C)c(Cl)ccc24)CCC(C)N(Cc2ccc(C(=O)O)cc2)C3=O)cc(C)c1Cl` (stereo not drawn) [I-127, 4-((8-chloro-11-(3-(4-chloro-3,5-dimethylphenoxy)propyl)-3-methyl-1-oxo-7-(1,3,5-trimethyl-1H-pyrazol-4-yl)-4,5-dihydro-1H-[1,4]diazepino[1,2-a]indol-2(3H)-yl)methyl)benzoic acid], under 50 nM.

For `Cc1cc(OCCCc2c(C(=O)N[C@@H]3CCCN(C(=O)C(=O)O)C3)[nH]c3c(-c4c(C)nn(C)c4C)c(Cl)ccc23)cc(C)c1Cl` [I-327, (R)-2-(3-(6-chloro-3-(3-(4-chloro-3,5-dimethylphenoxy)propyl)-7-(1,3,5-trimethyl-1H-pyrazol-4-yl)-1H-indole-2-carboxamido)piperidin-1-yl)-2-oxoacetic acid], the Ki was under 50 nM. Same read-out and setting: with `Cc1cc(OCCCc2c3n(c4c(-c5c(C)nn(C)c5C)c(Cl)ccc24)C(C)[C@@H](C)N(Cc2cccc(C(=O)O)c2)C3=O)cc(C)c1Cl` (stereo partly drawn) [I-145, 3-(((3R)-7-chloro-10-(3-(4-chloro-3,5-dimethylphenoxy)propyl)-3,4-dimethyl-1-oxo-6-(1,3,5-trimethyl-1H-pyrazol-4-yl)-3,4-dihydropyrazino[1,2-a]indol-2(1H)-yl)methyl)benzoic acid] the figure was under 50 nM; with `Cc1cc(OCCCc2c(C(=O)N(C)c3cccc(C(=O)O)c3)[nH]c3c(-c4c(C)nn(C)c4C)c(Cl)ccc23)cc(C)c1Cl` [I-187, 3-(6-chloro-3-(3-(4-chloro-3,5-dimethylphenoxy)propyl)-N-methyl-7-(1,3,5-trimethyl-1H-pyrazol-4-yl)-1H-indole-2-carboxamido)benzoic acid], under 50 nM. Still for that read-out and setting: with `Cc1cc(OCCCc2c(C(=O)NCc3cc(C(=O)O)c(CN4CCc5ccccc5C4)o3)[nH]c3c(-c4c(C)nn(C)c4C)cccc23)cc(C)c1Cl` [I-293, 5-((3-(3-(4-chloro-3,5-dimethylphenoxy)propyl)-7-(1,3,5-trimethyl-1H-pyrazol-4-yl)-1H-indole-2-carboxamido)methyl)-2-((3,4-dihydroisoquinolin-2(1H)-yl)methyl)furan-3-carboxylic acid] the figure was under 50 nM; with `Cc1cc(OCCCc2c(C(=O)NCC(=O)O)[nH]c3c(-c4c(C)nn(C)c4C)cccc23)cc(C)c1Cl` [I-286, (3-(3-(4-chloro-3,5-dimethylphenoxy)propyl)-7-(1,3,5-trimethyl-1H-pyrazol-4-yl)-1H-indole-2-carbonyl)glycine], under 50 nM. The same measure, in the same setting: with `Cc1cc(OCCCc2c3n(c4c(-c5c(C)nn(C)c5C)cccc24)CCCN(Cc2ccc(N4CCCC4)c(C(=O)O)c2)C3=O)cc(C)c1Cl` [I-78, 5-((11-(3-(4-chloro-3,5-dimethylphenoxy)propyl)-1-oxo-7-(1,3,5-trimethyl-1H-pyrazol-4-yl)-4,5-dihydro-1H-[1,4]diazepino[1,2-a]indol-2(3H)-yl)methyl)-2-(pyrrolidin-1-yl)benzoic acid] the figure was 101 to 299 nM; with `Cc1cc(OCCCc2c(C(=O)NCCC(=O)NS(=O)(=O)c3ccccc3)[nH]c3ccccc23)cc(C)c1Cl` [I-14, 3-(3-(4-chloro-3,5-dimethylphenoxy)propyl)-N-(3-oxo-3-(phenylsulfonamido)propyl)-1H-indole-2-carboxamide], 51 to 100 nM.

The same assay, now with this note: Table 2; Ki bins given in μM; FITC-Bak or FITC-Bim peptide competition; Ki converted from IC50; read-out: Ki for Inhibition of Mcl-1.
Turning to `Cc1cc(OCCCc2c(C(=O)N3CCN(c4ccccc4)CC3)[nH]c3ccccc23)cc(C)c1Cl` [I-46, (3-(3-(4-chloro-3,5-dimethylphenoxy)propyl)-1H-indol-2-yl)(4-phenylpiperazin-1-yl)methanone], the Ki lay in the range of 1000 to 9990 nM.

The record behind these values is patent US10533010B2, “Substituted indole Mcl-1 inhibitors” (Vanderbilt University, priority 2014, dated 2020).
